In patent publication US8741906B2 (priority 2011, dated 2014):
Like-named read-outs stand apart in the source and are kept apart here.

How the values were obtained:
human CB1 receptors = molecular target: T1, human CB1 receptors (Homo sapiens, UniProt P21554); assay: functional cAMP assay, human CB1; assay type: cell-based
T1 construct: expressed in transfected cells; host or cells: CHO cells
Outline: (§1)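 Agonist EC50 values came from cAMP levels in CHO cells carrying human CB1 or CB2, after 30 min of compound treatment at 30 °C in the presence of 1 mM IBMX. Detection used a time-resolved FRET cAMP kit read against a cAMP standard curve.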

human CB2 receptors = molecular target: T2, human CB2 receptors (Homo sapiens, UniProt P34972); assay: functional cAMP assay, human CB2; assay type: cell-based
T2 construct: expressed in transfected cells; host or cells: CHO cells
T2 sequence (P34972 whole entry): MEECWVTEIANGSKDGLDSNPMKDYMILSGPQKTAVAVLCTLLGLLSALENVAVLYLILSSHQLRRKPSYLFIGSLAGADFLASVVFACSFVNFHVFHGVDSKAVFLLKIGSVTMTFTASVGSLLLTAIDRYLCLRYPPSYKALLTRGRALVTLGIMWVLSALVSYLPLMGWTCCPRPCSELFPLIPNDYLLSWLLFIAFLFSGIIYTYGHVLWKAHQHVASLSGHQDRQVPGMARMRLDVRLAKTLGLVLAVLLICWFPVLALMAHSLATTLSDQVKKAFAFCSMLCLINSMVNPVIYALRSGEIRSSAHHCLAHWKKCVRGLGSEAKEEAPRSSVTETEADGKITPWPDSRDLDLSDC
Outline: as §1

[1] = CHO cells expressing human CB1, cAMP, read-out: human CB1 EC50
[2] = CHO cells expressing human CB2, cAMP, read-out: human CB2 EC50

T1 sequence (P21554 whole entry): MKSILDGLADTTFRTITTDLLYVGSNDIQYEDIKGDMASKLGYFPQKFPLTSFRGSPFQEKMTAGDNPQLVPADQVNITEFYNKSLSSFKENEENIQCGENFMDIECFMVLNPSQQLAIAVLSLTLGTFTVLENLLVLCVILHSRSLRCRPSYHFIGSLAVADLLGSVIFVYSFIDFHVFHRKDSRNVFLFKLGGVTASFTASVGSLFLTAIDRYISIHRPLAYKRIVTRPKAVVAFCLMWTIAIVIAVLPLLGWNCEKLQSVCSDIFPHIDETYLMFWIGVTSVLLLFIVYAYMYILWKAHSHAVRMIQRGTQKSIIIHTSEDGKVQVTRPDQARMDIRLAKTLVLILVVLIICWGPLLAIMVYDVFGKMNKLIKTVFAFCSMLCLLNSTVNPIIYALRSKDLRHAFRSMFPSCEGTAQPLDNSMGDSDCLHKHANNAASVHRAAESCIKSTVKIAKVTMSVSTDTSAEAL

Row | EC50 (human CB2 receptors) [nM] | SMILES | EC50 (human CB1 receptors; [1]) [nM] | EC50 (human CB2 receptors; [2]) [nM] | EC50 (human CB1 receptors) [nM]
1 | – | COc1ccc(Cn2nnc3c(N4CCOCC4)nc(C(C)(C)C)nc32)cc1 [Example 57, 5-tert-Butyl-3-(4-methoxy-benzyl)-7-morpholin-4-yl-3H-[1,2,3]triazolo[4,5-d]pyrimidine] | > 10000 | 12.3 | –
2 | – | Cn1ccc(C2CCCN2c2nc(C(C)(C)C)nc3c2nnn3Cc2ccccc2Cl)n1 (centres unmarked) [Example 200, 5-tert-Butyl-3-(2-chloro-benzyl)-7-[2-(1-methyl-1H-pyrazol-3-yl)-pyrrolidin-1-yl]-3H-[1,2,3]triazolo[4,5-d]pyrimidine] | – | 178 | > 10000
3 | – | Cc1noc(Cn2nnc3c(N4CC[C@@](C)(O)C4)nc(C(C)(C)C)nc32)n1 [Example 226-b, (R)-1-(5-tert-butyl-3-((3-methyl-1,2,4-oxadiazol-5-yl)methyl)-3H-[1,2,3]triazolo[4,5-d]pyrimidin-7-yl)-3-methylpyrrolidin-3-ol] | > 10000 | 233 | –
4 | – | CC(C)(C)c1nc(N2CC3(COC3)C2)c2nnn(Cc3ccccc3S(C)(=O)=O)c2n1 [Example 186, 5-tert-Butyl-3-(2-methanesulfonyl-benzyl)-7-(2-oxa-6-aza-spiro[3.3]hept-6-yl)-3H-[1,2,3]triazolo[4,5-d]pyrimidine] | 137 | 0.3 | –
5 | – | CC(C)(C)c1nc(N2CCC[C@@H]2CO)c2nnn(Cc3ccccc3Cl)c2n1 [Example 37, {(R)-1-[5-tert-Butyl-3-(2-chloro-benzyl)-3H-[1,2,3]triazolo[4,5-d]pyrimidin-7-yl]-pyrrolidin-2-yl}-methanol] | 492 | 0.3 | –
6 | – | CC(C)(C)c1nc(N2CC3(COC3)C2)c2nnn(Cc3ccccc3Cl)c2n1 [Example 10, 5-tert-Butyl-3-(2-chloro-benzyl)-7-(2-oxa-6-aza-spiro[3.3]hept-6-yl)-3H-[1,2,3]triazolo[4,5-d]pyrimidine] | 404 | 2.4 | –
7 | – | CC(C)(C)c1nc(N2CCCC23COC3)c2nnn(Cc3ccccc3Cl)c2n1 [Example 53, 5-tert-Butyl-3-(2-chloro-benzyl)-7-(2-oxa-5-aza-spiro[3.4]oct-5-yl)-3H-[1,2,3]triazolo[4,5-d]pyrimidine] | > 10000 | 15 | –
8 | – | Cc1noc(Cn2nnc3c(N4CC5(COC5)C4)nc(C(C)(C)C)nc32)n1 [Example 180, 5-tert-Butyl-3-(3-methyl-[1,2,4]oxadiazol-5-ylmethyl)-7-(2-oxa-6-aza-spiro[3.3]hept-6-yl)-3H-[1,2,3]triazolo[4,5-d]pyrimidine] | > 10000 | 52.8 | –
9 | – | CC(C)(C)c1nc(N2CCC(F)(F)C2)c2nnn(Cc3c(F)ccc(Cl)c3Cl)c2n1 [Example 111, 5-tert-Butyl-3-(2,3-dichloro-6-fluoro-benzyl)-7-(3,3-difluoro-pyrrolidin-1-yl)-3H-[1,2,3]triazolo[4,5-d]pyrimidine] | 137 | 0.2 | –
10 | – | CC1CCN(c2nc(C(C)(C)C)nc3c2nnn3Cc2ccccc2Cl)C1 (centres unmarked) [Example 198, 5-tert-Butyl-3-(2-chloro-benzyl)-7-(3-methyl-pyrrolidin-1-yl)-3H-[1,2,3]triazolo[4,5-d]pyrimidine] | 1710 | 12.8 | –
11 | – | CC(C)(C)c1nc(N2CCC(F)(F)C2)c2nnn(CCc3ccccn3)c2n1 [Example 113, 5-tert-Butyl-7-(3,3-difluoro-pyrrolidin-1-yl)-3-(2-pyridin-2-yl-ethyl)-3H-[1,2,3]triazolo[4,5-d]pyrimidine] | 201 | 0.2 | –
12 | – | CC1CCCN1c1nc(C(C)(C)C)nc2c1nnn2Cc1ccccc1Cl (centres unmarked) [Example 30, 5-tert-Butyl-3-(2-chloro-benzyl)-7-(2-methyl-pyrrolidin-1-yl)-3H-[1,2,3]triazolo[4,5-d]pyrimidine] | > 10000 | 26.9 | –
13 | 32.9 | Cn1nnnc1Cn1nnc2c(N3CC[C@@H](O)C3)nc(C(C)(C)C)nc21 [Example 219, (R)-1-(5-tert-butyl-3-((1-methyl-1H-tetrazol-5-yl)methyl)-3H-[1,2,3]triazolo[4,5-d]pyrimidin-7-yl)pyrrolidin-3-ol] | – | – | > 10000
14 | – | CC(C)(C)c1nc(N2CC[C@H](O)C2)c2nnn(Cc3ccccc3Cl)c2n1 [Example 26, (S)-1-[5-tert-Butyl-3-(2-chloro-benzyl)-3H-[1,2,3]triazolo[4,5-d]pyrimidin-7-yl]-pyrrolidin-3-ol] | 866 | 1.1 | –
15 | – | CC(C)(C)c1nc(N2CCC(F)(F)C2)c2nnn(Cc3cccc(Cl)c3)c2n1 [Example 65, 5-tert-Butyl-3-(3-chloro-benzyl)-7-(3,3-difluoro-pyrrolidin-1-yl)-3H-[1,2,3]triazolo[4,5-d]pyrimidine] | 220 | 0.9 | –
16 | – | COC1CN(c2nc(C(C)(C)C)nc3c2nnn3Cc2ccccc2Cl)C1 [Example 15, 5-tert-Butyl-3-(2-chloro-benzyl)-7-(3-methoxy-azetidin-1-yl)-3H-[1,2,3]triazolo[4,5-d]pyrimidine] | 970 | 3.2 | –
17 | – | CC(C)(C)c1nc(N2CC(F)(F)C(F)(F)C2)c2nnn(Cc3ccccc3Cl)c2n1 [Example 43, 5-tert-Butyl-3-(2-chloro-benzyl)-7-(3,3,4,4-tetrafluoro-pyrrolidin-1-yl)-3H-[1,2,3]triazolo[4,5-d]pyrimidine] | 626 | 1.2 | –
18 | – | CC(C)(C)c1nc(N2CCC(F)(F)C2)c2nnn(Cc3nnnn3C3CC3)c2n1 [Example 157, 5-tert-Butyl-3-(1-cyclopropyl-1H-tetrazol-5-ylmethyl)-7-(3,3-difluoro-pyrrolidin-1-yl)-3H-[1,2,3]triazolo[4,5-d]pyrimidine] | > 10000 | 0.1 | –
19 | – | Cn1c(Cn2nnc3c(N4CCC(F)(F)C4)nc(C(C)(C)C)nc32)nnc1S(C)(=O)=O [Example 133, 5-tert-Butyl-7-(3,3-difluoro-pyrrolidin-1-yl)-3-(5-methanesulfonyl-4-methyl-4H-[1,2,4]triazol-3-ylmethyl)-3H-[1,2,3]triazolo[4,5-d]pyrimidine] | > 10000 | 4.4 | –
